Here are results for 18 compounds from US20230089073A1 (Carmot Therapeutics, Inc., priority 2021, published 2023).

In this assay the target is T1, human GLP-1 receptor (Homo sapiens, UniProt P43220).
T1 construct: expressed in transfected cells
T1 sequence (P43220 24-463): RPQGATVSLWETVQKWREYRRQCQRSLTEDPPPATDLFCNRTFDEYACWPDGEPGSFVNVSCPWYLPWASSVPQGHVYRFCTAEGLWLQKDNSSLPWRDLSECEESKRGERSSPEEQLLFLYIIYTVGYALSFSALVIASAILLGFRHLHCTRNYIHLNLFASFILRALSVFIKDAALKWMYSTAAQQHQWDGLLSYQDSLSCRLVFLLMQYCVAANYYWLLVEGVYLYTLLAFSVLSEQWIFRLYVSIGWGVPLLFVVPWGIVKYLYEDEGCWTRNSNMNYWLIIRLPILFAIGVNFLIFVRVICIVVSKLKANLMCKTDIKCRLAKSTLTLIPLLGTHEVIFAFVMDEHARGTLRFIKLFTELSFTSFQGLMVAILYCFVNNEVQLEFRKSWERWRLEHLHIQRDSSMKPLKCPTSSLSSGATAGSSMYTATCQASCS
Kind of assay: GLP-1R cAMP Assay. The format is cell-based. The note with it: cAMP accumulation in CHO cells stably overexpressing the human GLP-1 receptor; 30 min treatment; HitHunter cAMP kit; read-out: EC50. An outline of the steps:
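CHO cells stably overexpressing human GLP-1R, 10,000 cells/well, treated with compound in 20-point dose response in triplicate for 30 min. cAMP accumulation read by enzyme-complementation luminescence after lysis and overnight incubation; dose-response curves fitted.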
(cAMP levels reflect the balance of adenylyl cyclase and phosphodiesterase activity.)
The EC50 is the concentration that produces a half-maximal response. Regarding `C[C@H]1C[C@@H](Oc2ccnc(COc3ccc(C4CC4)cc3C#N)n2)CCN1Cc1nc2ccc(C(=O)O)cc2n1C[C@@H]1CCO1` [Compound 510, 2-(((2S,4S)-4-((2-((2-cyano-4-cyclopropylphenoxy)methyl)pyrimidin-4-yl)oxy)-2-methylpiperidin-1-yl)methyl)-1-(((S)-oxetan-2-yl)methyl)-1H-benzo[d]imidazole-6-carboxylic acid], the EC50 is less than 50 nM. With `O=C(O)c1cc(F)c2nc(CN3CCC(N(CC4CC4)c4ccnc(COc5ccc(Cl)cc5F)n4)CC3)n(C[C@@H]3CCO3)c2c1` [Compound 511, 2-{[4-({2-[(4-chloro-2-fluorophenoxy)methyl]pyrimidin-4-yl}(cyclopropylmethyl)amino)piperidin-1-yl]methyl}-4-fluoro-1-{[(2S)-oxetan-2-yl]methyl}-1H-1,3-benzodiazole-6-carboxylic acid], the half-maximal effective concentration (EC50) was less than 50 nM. For `C[C@H]1C[C@@H](Oc2ccnc(COc3ccc(F)cc3F)n2)CCN1Cc1nc2ncc(C(=O)O)cc2n1C[C@@H]1CCO1` [Compound 512, 2-{[(2S,4S)-4-({2-[(2,4-difluorophenoxy)methyl]pyrimidin-4-yl}oxy)-2-methylpiperidin-1-yl]methyl}-1-{[(2S)-oxetan-2-yl]methyl}-1H-imidazo[4,5-b]pyridine-6-carboxylic acid] the value was greater than 500 nM; for `C[C@H]1C[C@@H](Oc2ccnc(COc3ccc(C#N)cc3F)n2)CCN1Cc1nc2ncc(C(=O)O)cc2n1C[C@@H]1CCO1` [Compound 513, 2-{[(2S,4S)-4-({2-[(4-cyano-2-fluorophenoxy)methyl]pyrimidin-4-yl}oxy)-2-methylpiperidin-1-yl]methyl}-1-{[(2S)-oxetan-2-yl]methyl}-1H-imidazo[4,5-b]pyridine-6-carboxylic acid], less than 50 nM; for `C[C@H]1C[C@@H](Oc2ccnc(COc3cc(F)c(F)cc3F)n2)CCN1Cc1nc2ccc(C(=O)O)cc2n1C[C@@H]1CCO1` [Compound 514, 2-{[(2S,4S)-2-methyl-4-({2-[(2,4,5-trifluorophenoxy)methyl]pyrimidin-4-yl}oxy)piperidin-1-yl]methyl}-1-{[(2S)-oxetan-2-yl]methyl}-1H-1,3-benzodiazole-6-carboxylic acid], less than 50 nM. Consider `C[C@H]1C[C@@H](Oc2ccnc(COc3ccc(C#N)cc3F)n2)CCN1Cc1nc2ccc(C(=O)O)cc2n1C[C@H]1CCOC1` [Compound 515, 2-{[(2S,4S)-4-({2-[(4-cyano-2-fluorophenoxy)methyl]pyrimidin-4-yl}oxy)-2-methylpiperidin-1-yl]methyl}-1-{[(3R)-oxolan-3-yl]methyl}-1H-1,3-benzodiazole-6-carboxylic acid], for which the EC50 is less than 50 nM. To `CN(C)c1cc(C(=O)N2CCN(Cc3nc4ccc(C(=O)O)cc4n3C[C@@H]3CCO3)CC2)ncn1` [Example 1, (S)-2-((4-(6-(Dimethylamino)pyrimidine-4-carbonyl)piperazin-1-yl)methyl)-1-(oxetan-2-ylmethyl)-1H-benzo[d]imidazole-6-carboxylic acid] belongs 50 to 500 nM. On to `O=C(O)c1ccc2nc(CN3CCN(C(=O)c4cccc(Oc5ccc(C(F)(F)F)cc5Cl)c4)CC3)n(C[C@@H]3CCO3)c2c1` [Example 2, (S)-2-((4-(3-(2-Chloro-4-(trifluoromethyl)phenoxy)benzoyl)piperazin-1-yl)methyl)-1-(oxetan-2-ylmethyl)-1H-benzo[d]imidazole-6-carboxylic acid], for which the EC50 was greater than 500 nM. For `N#Cc1ccc(Oc2cccc(C(=O)N3CCN(Cc4nc5ccc(C(=O)O)cc5n4C[C@@H]4CCO4)CC3)c2)c(F)c1` [Example 10, (S)-2-((4-(3-(4-Cyano-2-fluorophenoxy)benzoyl)piperazin-1-yl)methyl)-1-(oxetan-2-ylmethyl)-1H-benzo[d]imidazole-6-carboxylic acid] the value was greater than 500 nM; for `Cc1ccccc1Oc1cccc(C(=O)N2CCN(Cc3nc4ccc(C(=O)O)cc4n3C[C@@H]3CCO3)CC2)c1` [Example 14, (S)-1-(Oxetan-2-ylmethyl)-2-((4-(3-(o-tolyloxy)benzoyl)piperazin-1-yl)methyl)-1H-benzo[d]imidazole-6-carboxylic acid], greater than 500 nM. With `Cc1c(Cl)cccc1OCc1ccc(C(=O)N2CCN(Cc3nc4ccc(C(=O)O)cc4n3C[C@@H]3CCO3)CC2)o1` [Example 19, (S)-2-((4-(5-((3-Chloro-2-methylphenoxy)methyl)furan-2-carbonyl)piperazin-1-yl)methyl)-1-(oxetan-2-ylmethyl)-1H-benzo[d]imidazole-6-carboxylic acid], the EC50 lay in the range of 50 to 500 nM.

On to `O=C(O)c1ccc2nc(CN3CCN(Cc4ccc(COc5ccccc5)o4)CC3)n(C[C@@H]3CCO3)c2c1` [Example 20, (S)-1-(Oxetan-2-ylmethyl)-2-((4-((5-(phenoxymethyl)furan-2-yl)methyl)piperazin-1-yl)methyl)-1H-benzo[d]imidazole-6-carboxylic acid], for which the EC50 is greater than 500 nM. With `O=C(O)c1ccc2nc(CN3CCN(Cc4cc5ccc(-c6ccc(Cl)cc6Cl)cc5o4)CC3)n(C[C@@H]3CCO3)c2c1` [Example 27, (S)-2-((4-((6-(2,4-Dichlorophenyl)benzofuran-2-yl)methyl)piperazin-1-yl)methyl)-1-(oxetan-2-ylmethyl)-1H-benzo[d]imidazole-6-carboxylic acid], the EC50 was greater than 500 nM. To `Cc1ccc(Cc2cccc(C(=O)N3CCN(Cc4nc5ccc(C(=O)O)cc5n4C[C@@H]4CCO4)CC3)c2)c(Cl)c1` [Example 32, (S)-2-((4-(3-(2-Chloro-4-methylbenzyl)benzoyl)piperazin-1-yl)methyl)-1-(oxetan-2-ylmethyl)-1H-benzo[d]imidazole-6-carboxylic acid] belongs 50 to 500 nM. To `Cc1ccc(Oc2cc(C(=O)N3CCN(Cc4nc5ccc(C(=O)O)cc5n4C[C@@H]4CCO4)CC3)ncn2)cc1` [Example 34, (S)-1-(Oxetan-2-ylmethyl)-2-((4-(6-(p-tolyloxy)pyrimidine-4-carbonyl)piperazin-1-yl)methyl)-1H-benzo[d]imidazole-6-carboxylic acid] belongs less than 50 nM. `O=C(O)c1ccc2nc(CN3CCN(C(=O)c4ccc(COc5ccc(Cl)cc5F)o4)CC3)n(C[C@@H]3CCO3)c2c1` [Example 36, (S)-2-((4-(5-((4-Chloro-2-fluorophenoxy)methyl)furan-2-carbonyl)-piperazin-1-yl)methyl)-1-(oxetan-2-ylmethyl)-1H-benzo[d]imidazole-6-carboxylic acid]: the EC50 was greater than 500 nM. Regarding `Cc1ccc2oc3cc(C(=O)N4CCN(Cc5nc6ccc(C(=O)O)cc6n5C[C@@H]5CCO5)CC4)ccc3c(=O)c2c1` [Example 44, (S)-2-((4-(7-Methyl-9-oxo-9H-xanthene-3-carbonyl)piperazin-1-yl)methyl)-1-(oxetan-2-ylmethyl)-1H-benzo[d]imidazole-6-carboxylic acid], the EC50 lay within 50 to 500 nM.

With `CCn1cncc1Cn1c(CN2CCN(C(=O)c3cccc(N(C)c4ccc(C)cc4)c3)CC2)nc2ccc(C(=O)O)cc21` [Example 46, 1-((1-Ethyl-1H-imidazol-5-yl)methyl)-2-((4-(3-(methyl(p-tolyl)amino)benzoyl)piperazin-1-yl)methyl)-1H-benzo[d]imidazole-6-carboxylic acid], the EC50 lay in the range of 50 to 500 nM.
